Columns and labels:
Type in all cases: cell-based, human
[1] = test system: MOLT-3 (T-ALL); test: In vitro clonogenic assay; details: for Mean no, of colonies / %, inhibition: 24 hours
Procedure: (§1) In vitro clonogenic assays were carried out to determine the cytotoxic activity of the cathepsin inhibitor I (CATI-1) (Z-Phe-Gly-NHO-Bz) against cancer cells. The cancer cell lines used in the assay were U373 (glioblastoma), BT-20 (breast cancer), SQ20B (squamous cell carcinoma), RS4;11 (pro-B ALL), ALL-1 (pre-pre-B ALL), KM-3, MOLT-3 (T-ALL), JURKAT (T-ALL), K-562 (CML), HL-60 (AML), DAUDI (NHL), RAMOS (NHL) and RAJI (NHL). Each cell line was treated under several concentrations of CATI-1 for 24 hours, washed with serum free medium and resuspended in clonogenic medium having 10% fetal bovine serum and 0.9% methylcellulose. Resuspended cells were plated in duplicate 35-mm Petri dishes at 10,000 to 20,000 cells per dish and cultured at 37° C. in a humidified 5% CO2 atmosphere for 5 to 7 days.
(§2) Images of colonies in each dish were taken by a digital camera (Princeton Instruments, Inc.) linked to a microscope (Nikon Diaphot 200). Colony numbers were determined using an inverted phase microscope and percent inhibition of colony formation determined using the formula:
(§3) % inhibition=(1−(colony number in test sample/colony number in control sample))×100.

[2] = test system: HL-60 (AML); test: In vitro clonogenic assay; details: CATI-1 10 uM, 24 hours
Procedure: as §1, §2, §3

[3] = test system: RAMOS (NHL); test: In vitro clonogenic assay; details: for %, inhibition / Mean no, of colonies: 24 hours
Procedure: as §1, §2, §3

[4] = test system: DAUDI (NHL); test: In vitro clonogenic assay; details: CATI-1 10 uM, 24 hours
Procedure: as §1, §2, §3

[5] = test system: K-562 (CML); test: In vitro clonogenic assay; details: for %, inhibition / Mean no, of colonies: 24 hours
Procedure: as §1, §2, §3

[6] = test system: U373 (brain tumor); test: In vitro clonogenic assay; details: 24 hours
Procedure: as §1, §2, §3

[7] = test system: JURKAT (T-ALL); test: In vitro clonogenic assay; details: for %, inhibition / Mean no, of colonies: 24 hours
Procedure: as §1, §2, §3

[8] = test system: all tested cancer cell lines; test: Cytometric apoptosis detection assays, FIG. 2; details: FIG. 2 (SQ-20B, HeLa, PC-3, BT-20)
Procedure: The percentages indicate the fraction of cells at an early stage of apoptosis (lower right quadrant), as measured by single MC540 fluorescence, and the fraction of cells at an advanced stage of apoptosis (upper right quadrant).
Quantitative flow cytometric apoptosis detection assays were performed on BT-20 (breast cancer), PC-3 (prostate cancer), U373 (glioblastoma), SQ20B (squamous cell carcinoma), HeLa (cervix cancer), and DU145 (prostate cancer). Just prior to the assay, one mg/ml stock solutions of MC540 (Sigma, St. Louis, Mo.) and PI (Sigma, St. Louis, Mo.) were filtered through a 0.22 μm filter and stored at 4° C. in the dark. CATI-1 treated cell lines was harvested, and 1×10^6 cells suspended and stained with 5 μg/ml MC540 and 10 μg/ml propidium iodide (PI) (Uckun et al. (1996) Science, 273: 1096-1100) at 4° C. in the dark for 24 hours. Stained cells were analyzed with a FACStar Plus flow cytometer (Becton Dickinson, San Jose, Calif.) using the 488-nm excitation from an argon laser. […] In each experiment approximately 10,000 cells were analyzed by FACS and the percentage of cells at early (MC540 fluorescence only) and advanced (dual MC540 plus PI fluorescence) stages of apoptosis obtained.

[9] = test system: BT-20 cells; test: TUNEL assay (DNA cleavage); details: 50 μM and 100 μM CATI-1, FIG. 3
Procedure: (§4) DNA cleavage as an indicator of apoptosis was determined using the in situ terminal deoxynucleotidyl transferase (TdT)-mediated dUTP nick-end-labeling method (TUNEL assay) of Boehringer Mannheim (Cell Death Detection Kit) as described in Zhu et al. (1999) Clin. Can. Res., 5:355-360. Briefly, CATI-1 treated cells and control cells were harvested and resuspended in phosphate-buffered saline (PBS) at a density of 5×10^6 cells/ml. Fifty μl of each cell suspension was placed into a PAP Pen (Zymed Laboratories Inc., South San Francisco, Calif.)-circled area on Superfrost/Plus slide (Fisher Scientific, Pittsburgh, Pa.) that was coated for cell adhesion. Cells were allowed to adhere to the slide for 10 minutes, washed with PBS and fixed with a 4% paraformadehyde in PBS solution for 20 minutes. After washing the slides twice with PBS, the cells were permeabilized by treatment with 100 μl of 20 mM SDS in PBS for 10 minutes. […] However, non-apoptotic cells incorporate only insignificant amounts of FITC-labeled dUTP due to the lack of exposed 3′-hydroxyl ends in intact DNA and consequently have much less green fluorescence than apoptotic cells. DNA bound PI emits strong red nuclear fluorescence from all the cells.

[10] = test system: SQ20B cells; test: TUNEL assay (DNA cleavage); details: 50 μM and 100 μM CATI-1, FIG. 3
Procedure: as §4

[11] = test system: K562 cells; test: Flow cytometric apoptosis detection in p53 deficient cells; details: K-562, p53 deficient
Procedure: (§5) Quantitative flow cytometric apoptosis detection assays were performed on BT-20 (breast cancer), PC-3 (prostate cancer), U373 (glioblastoma), SQ20B (squamous cell carcinoma), HeLa (cervix cancer), and DU145 (prostate cancer). Just prior to the assay, one mg/ml stock solutions of MC540 (Sigma, St. Louis, Mo.) and PI (Sigma, St. Louis, Mo.) were filtered through a 0.22 μm filter and stored at 4° C. in the dark. CATI-1 treated cell lines was harvested, and 1×10^6 cells suspended and stained with 5 μg/ml MC540 and 10 μg/ml propidium iodide (PI) (Uckun et al. (1996) Science, 273: 1096-1100) at 4° C. in the dark for 24 hours. Stained cells were analyzed with a FACStar Plus flow cytometer (Becton Dickinson, San Jose, Calif.) using the 488-nm excitation from an argon laser. MC540 and PI emissions were split with a 600-nm short pass diachronic mirror; a 575-nm band pass filter was placed in front of one photomultiplier tube to measure MC540 emission, and 635-nm band pass filter was used for PI emission. In each experiment approximately 10,000 cells were analyzed by FACS and the percentage of cells at early (MC540 fluorescence only) and advanced (dual MC540 plus PI fluorescence) stages of apoptosis obtained.
(§6) Effects of CATI-1 were investigated on a lung squamous carcinoma cell line, NCI-H520 cells, and a chronic myeloid leukemia cell line, K562 cells.

[12] = test system: NCI-H520 cells; test: as above
Procedure: as §5, §6

[13] = test system: all tested cell lines, solid and blood cell; test: In vitro clonogenic assay, all tested cell lines; details: JURKAT, KM3, DAUDI, RAJI (BAX deficient)
Procedure: as §1, §2
% inhibition=(1−(colony number in test sample/colony number in control sample))×100. […]

[14] = read-out: IC50 (colony formation)

For O=C(CNC(=O)[C@H](Cc1ccccc1)NC(=O)OCc1ccccc1)NOC(=O)c1ccccc1 [CATI-1, Z-Phe-Gly-NHO-Bz], the “Mean no, of colonies” value ([1]; CATI-1 10 uM) was 194 (124, 264), the “%, inhibition” value ([1]; CATI-1 20 uM) was 99.1% and the “Mean no, of colonies” value ([1]; CATI-1 20 uM) was 18 (16, 20). The “%, inhibition” value ([1]; CATI-1 35 uM) was 100%, the “Mean no, of colonies” value ([1]; CATI-1 35 uM) was 0 (0, 0) and the IC50 [1, 14] was 5.5 µM. For the same compound, the “%, inhibition” value [2] was 100%, the “Mean no, of colonies” value [2] was 0 (0, 0) and the “%, inhibition” value ([3]; CATI-1 10 uM) was 47.1%. The “Mean no, of colonies” value ([3]; CATI-1 10 uM) was 1442 (1344, 1540), the “%, inhibition” value ([3]; CATI-1 20 uM) was 78.2% and the “Mean no, of colonies” value ([3]; CATI-1 20 uM) was 594 (660, 528). The “%, inhibition” value ([3]; CATI-1 35 uM) was 100%, the “Mean no, of colonies” value ([3]; CATI-1 35 uM) was 0 (0, 0) and the IC50 [3, 14] was 10.1 µM. For the same compound, the “%, inhibition” value [4] was 100%, the “Mean no, of colonies” value [4] was 0 (0, 0) and the “%, inhibition” value ([5]; CATI-1 10 uM) was 19.0%. For the same compound, the “Mean no, of colonies” value ([5]; CATI-1 10 uM) was 3806 (3980, 3632), the “%, inhibition” value ([5]; CATI-1 20 uM) was 76.9% and the “Mean no, of colonies” value ([5]; CATI-1 20 uM) was 1086 (1196, 976). The “%, inhibition” value ([5]; CATI-1 35 uM) was 99.8%, the “Mean no, of colonies” value ([5]; CATI-1 35 uM) was 10 (12, 8) and the IC50 [5, 14] was 15.4 µM. For the same compound, the “%, inhibition” value ([6]; CATI-1 30 uM) was 97%, the “Mean no, of colonies” value ([6]; CATI-1 30 uM) was 76 (84, 67) and the “%, inhibition” value ([6]; CATI-1 50 uM) was 100%. The “Mean no, of colonies” value ([6]; CATI-1 50 uM) was 0, the “%, inhibition” value ([7]; CATI-1 10 uM) was 10.0% and the “Mean no, of colonies” value ([7]; CATI-1 10 uM) was 5110 (5260, 4960). For the same compound, the “%, inhibition” value ([7]; CATI-1 20 uM) was 98.9%, the “Mean no, of colonies” value ([7]; CATI-1 20 uM) was 64 (40, 88) and the “%, inhibition” value ([7]; CATI-1 35 uM) was 100%. The “Mean no, of colonies” value ([7]; CATI-1 35 uM) was 0 (0, 0), the IC50 [7, 14] was 14.5 µM and the induction of apoptosis [8] was “induced apoptosis”. For the same compound, the “DNA fragmentation (TUNEL)” value [9] was “nuclear green fluorescence consistent with DNA fragmentation”, the “DNA fragmentation (TUNEL)” value [10] was “nuclear green fluorescence consistent with DNA fragmentation” and the EC50 [11] was roughly 20 µM. The EC50 [12] was 55 µM and the “susceptibility of BAX deficient cell lines to CATI-1” value [13] was “highly susceptible”.
